Earlier results, collected in US8637078B2, “Bilayer tablet comprising telmisartan and diuretic” (Boehringer Ingelheim International GmbH, priority 2005, dated 2014).

Tests used:
[1] = both polymorphic forms A and B; physiological pH range of the gastrointestinal tract, pH 1 to 7
[2] = composition with 3 to 50 wt. % telmisartan in dissolving matrix (basic agent, surfactant or emulsifier, water-soluble diluent); known from WO 2004/028505

solubility in aqueous systems [1]: very poor solubility
solubility raised by a factor [2]: several hundred
SMILES: CCCc1nc2c(C)cc(-c3nc4ccccc4n3C)cc2n1Cc1ccc(-c2ccccc2C(=O)O)cc1 [telmisartan, 4′-[2-n-propyl-4-methyl-6-(1-methylbenzimidazol-2-yl)-benzimidazol-1-ylmethyl]-biphenyl-2-carboxylic acid]
